Measurements as given in PMC12474915 (Nature Communications, 2025).

Target: T1, MET1MTase (Arabidopsis thaliana, UniProt P34881)
T1 construct: gene DMT1; residues 621-1534 (lacks RFTS1-2; acidic linker, BAH1-2, MTase), GST tag cleaved by HRV3C, E. coli Rosetta2 (DE3)
T1 sequence (P34881 621-1534): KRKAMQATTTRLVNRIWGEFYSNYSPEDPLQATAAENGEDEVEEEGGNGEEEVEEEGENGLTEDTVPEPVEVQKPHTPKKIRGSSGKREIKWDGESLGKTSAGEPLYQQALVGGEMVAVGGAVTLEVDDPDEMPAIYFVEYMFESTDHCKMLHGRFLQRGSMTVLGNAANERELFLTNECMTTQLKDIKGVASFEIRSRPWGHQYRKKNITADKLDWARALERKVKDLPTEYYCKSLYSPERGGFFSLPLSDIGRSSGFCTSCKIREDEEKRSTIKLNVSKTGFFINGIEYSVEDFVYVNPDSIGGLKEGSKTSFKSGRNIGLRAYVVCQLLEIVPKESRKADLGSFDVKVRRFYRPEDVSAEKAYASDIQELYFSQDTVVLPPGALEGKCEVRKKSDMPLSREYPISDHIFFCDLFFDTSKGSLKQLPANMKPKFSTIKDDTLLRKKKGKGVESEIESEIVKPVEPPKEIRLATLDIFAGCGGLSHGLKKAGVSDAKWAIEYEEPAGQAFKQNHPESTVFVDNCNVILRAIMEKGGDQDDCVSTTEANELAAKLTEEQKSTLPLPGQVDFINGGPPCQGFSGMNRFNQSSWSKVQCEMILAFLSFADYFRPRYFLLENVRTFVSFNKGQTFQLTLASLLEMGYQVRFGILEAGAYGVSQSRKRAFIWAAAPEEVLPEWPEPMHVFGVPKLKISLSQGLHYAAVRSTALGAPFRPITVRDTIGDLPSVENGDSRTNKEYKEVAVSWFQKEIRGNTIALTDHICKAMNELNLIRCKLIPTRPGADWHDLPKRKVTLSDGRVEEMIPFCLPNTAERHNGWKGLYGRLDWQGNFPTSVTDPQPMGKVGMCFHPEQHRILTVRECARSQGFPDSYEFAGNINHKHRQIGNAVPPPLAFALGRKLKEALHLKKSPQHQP
Experiment: cryo-EM structure
Assay type: binding
Conditions: ternary complex with 12 bp hemimethylated DNA (5-fluorocytosine covalently bound to Cys1198); formed from added SAM; 2.74 Å

Structure (SMILES): Nc1ncnc2c1ncn2[C@@H]1O[C@H](CSCC[C@H](N)C(=O)O)[C@@H](O)[C@H]1O [SAH, S-adenosyl homocysteine]
- cryo-EM structure: catalytic core containing S-adenosyl homocysteine (SAH, a methyl donor cofactor product) binding site
